Legend:
[1] = tested on: Ehrlich's mouse ascites carcinoma cells; assay: Tests 4, 5 and Comparing Test 1: cytocidal activity of bleomycin alone or with isomonool, Ehrlich's cells; type: cell-based
Method: (§1) The cytocidal activity (IC90) of bleomycin was evaluated when used alone or used in combination with 14-methyl-1-pentadecanol or 14-methyl-1-hexadecanol, using Ehrlich's mouse ascites carcinoma cells and human lung tumor A549 cells.

Ehrlich's ascites cells = assay: Test 6 and Comparing Test 2: uptake of bleomycin into Ehrlich's ascites cells; type: cell-based, mouse; conditions: bleomycin alone
[2] = tested on: human lung carcinoma A549 cells; assay: Tests 4, 5 and Comparing Test 1: cytocidal activity of bleomycin alone or with isomonool, A549 cells; type: cell-based
Method: as §1

[3] = tested on: Ehrlich's mouse ascites carcinoma cells; assay: Test 7 and Comparing Tests 3 and 4: survival of mice inoculated with Ehrlich's mouse ascites carcinoma cells; type: in vivo, male C57BL/6 mice; conditions: bleomycin alone; for Number of surviving mice: of 8
Method: 5-week old male C57BL/6 mice were intraperitoneally inoculated with 10^6 Ehrlich's mouse ascites carcinoma cells. Since 24 hours later, a 50 μg/ml solution of bleomycin in 0.25% HCO-60 solution in physiological saline, and a suspension containing 50 μg/ml of bleomycin and 5 μg/ml of 14-methyl-1-pentadecanol were intraperitoneally injected at a dose of 10 mg/kg·day and 11 mg/kg·day, respectively, to each 8 animals/group for 5 days. The survival time of the injected mice was then followed.

Substance: bleomycin [reference compound]
- Cytocidal activity (IC90) of bleomycin alone [1]: 20 µg/mL
- Bleomycin uptake (Ehrlich's ascites cells; 30 min): 0.03 μg/mg Ehrlich's cell
- Bleomycin uptake (Ehrlich's ascites cells; 60 min): 0.06 μg/mg Ehrlich's cell
- Bleomycin uptake (Ehrlich's ascites cells; 120 min): 0.12 μg/mg Ehrlich's cell
- Bleomycin uptake (Ehrlich's ascites cells; 180 min): 0.13 μg/mg Ehrlich's cell
- Bleomycin uptake (Ehrlich's ascites cells; Initial): 0 μg/mg Ehrlich's cell
- Cytocidal activity (IC90) of bleomycin alone [2]: 44 µg/mL
- mean survival time after inoculation ([3]; i.p., 10 mg/kg.day for 5 days (Comparing test 3)): 33.3 days
- Number of surviving mice ([3]; day 14): 7
- Number of surviving mice ([3]; day 15): 6
- Number of surviving mice ([3]; day 16): 6
- Number of surviving mice ([3]; day 17): 6
- Number of surviving mice ([3]; day 18): 6
- Number of surviving mice ([3]; day 19): 6
- Number of surviving mice ([3]; day 20): 6
- Number of surviving mice ([3]; day 23): 4
- Number of surviving mice ([3]; day 33): 3
- Number of surviving mice ([3]; day 41): 2
- Number of surviving mice ([3]; day 45): 2
- Number of surviving mice ([3]; day 52): 2
- Number of surviving mice ([3]; day 57): 1
- Number of surviving mice ([3]; day 60): 1

From patent US5162304A, “Pharmaceutical compositions and methods for treatment and prophylaxis of cancer” (priority 1990, dated 1992)
